{
  "source": "patent US12708630B2",
  "about": "“Combined therapy of 4′-thio-5-aza-2′-deoxycytidine and Venetoclax” (PINOTBIO, INC., priority 2021, dated 2026)",
  "assay_in_all_cases": "drug activity profiling cytotoxicity",
  "type_in_all_cases": "cell-based",
  "key": {"[1]": {"system": "KATO III", "conditions": "Homo sapiens; KATO III cell line, Stomach; read-out: Aza-T-dCyd IC50", "protocol": "(§1) To obtain a biomarker for Aza-T-dCyd, drug activity profiling analysis was performed to evaluate the cytotoxicity of 200 cell lines.\n(§2) The drug responsiveness analysis of Aza-T-dCyd through drug activity profiling and genomic analysis of 200 cell lines confirmed the potent efficacy of Aza-T-dCyd in various solid tumors (Table 2)."}, "[2]": {"system": "TF-1", "conditions": "Homo sapiens; TF-1 cell line, Erythroleukemia; read-out: Aza-T-dCyd IC50", "protocol": "as §1, §2"}, "[3]": {"system": "SCC-9", "conditions": "Homo sapiens; SCC-9 cell line, Head and Neck; read-out: Aza-T-dCyd IC50", "protocol": "as §1, §2"}, "[4]": {"system": "SK-UT-1", "conditions": "Homo sapiens; SK-UT-1 cell line, Sarcoma; read-out: Aza-T-dCyd IC50", "protocol": "as §1, §2"}, "[5]": {"system": "KG-1", "conditions": "Homo sapiens; KG-1 cell line, AML; read-out: Aza-T-dCyd IC50", "protocol": "as §1, §2"}, "[6]": {"system": "NCIH446", "conditions": "Homo sapiens, NCI-H446; NCIH446 cell line, Lung (SCLC); read-out: Aza-T-dCyd IC50", "protocol": "as §1, §2"}, "[7]": {"system": "BM-1604", "conditions": "BM-1604 cell line, Prostate; read-out: Aza-T-dCyd IC50", "protocol": "as §1, §2"}, "[8]": {"system": "BHT-101", "conditions": "Homo sapiens; BHT-101 cell line, Endocrine (Thyroid); read-out: Aza-T-dCyd IC50", "protocol": "as §1, §2"}, "[9]": {"system": "WiDr", "conditions": "Homo sapiens; WiDr cell line, Colon; read-out: Aza-T-dCyd IC50", "protocol": "as §1, §2"}, "[10]": {"system": "C32TG", "conditions": "C32TG cell line, Skin (Melanoma); read-out: Aza-T-dCyd IC50", "protocol": "as §1, §2"}, "[11]": {"system": "Daudi", "conditions": "Homo sapiens; Daudi cell line, Burkitt's lymphoma; read-out: Aza-T-dCyd IC50", "protocol": "as §1, §2"}, "[12]": {"system": "RS4; 11", "conditions": "Homo sapiens, 11 cell line, ALL, read-out: Aza-T-dCyd IC50", "protocol": "as §1, §2"}, "[13]": {"system": "A-704", "conditions": "Homo sapiens, A704; A-704 cell line, Kidney; read-out: Aza-T-dCyd IC50", "protocol": "as §1, §2"}, "[14]": {"system": "H4", "conditions": "H4 cell line, CNS (Glioma); read-out: Aza-T-dCyd IC50", "protocol": "as §1, §2"}, "[15]": {"system": "A-253", "conditions": "Homo sapiens, A253; A-253 cell line, Head and Neck; read-out: Aza-T-dCyd IC50", "protocol": "as §1, §2"}, "[16]": {"system": "5637", "conditions": "5637 cell line, Bladder; read-out: Aza-T-dCyd IC50", "protocol": "as §1, §2"}, "[17]": {"system": "Hs 746T", "conditions": "Homo sapiens, Hs746T; Hs 746T cell line, Stomach; read-out: Aza-T-dCyd IC50", "protocol": "as §1, §2"}, "[18]": {"system": "BFTC-905", "conditions": "Homo sapiens; BFTC-905 cell line, Bladder; read-out: Aza-T-dCyd IC50", "protocol": "as §1, §2"}, "[19]": {"system": "HT-3", "conditions": "Homo sapiens; HT-3 cell line, Female GU (Cervix); read-out: Aza-T-dCyd IC50", "protocol": "as §1, §2"}, "[20]": {"system": "HuP-T4", "conditions": "Homo sapiens; HuP-T4 cell line, Pancreas; read-out: Aza-T-dCyd IC50", "protocol": "as §1, §2"}, "[21]": {"system": "EB2", "conditions": "Homo sapiens; EB2 cell line, Burkitt's lymphoma; read-out: Aza-T-dCyd IC50", "protocol": "as §1, §2"}, "[22]": {"system": "VA-ES-BJ", "conditions": "VA-ES-BJ cell line, Sarcoma; read-out: Aza-T-dCyd IC50", "protocol": "as §1, §2"}, "[23]": {"system": "MDA MB 453", "conditions": "Homo sapiens; MDA MB 453 cell line, Breast; read-out: Aza-T-dCyd IC50", "protocol": "as §1, §2"}, "[24]": {"system": "D283 Med", "conditions": "Homo sapiens; D283 Med cell line, CNS (Medulloblastoma); read-out: Aza-T-dCyd IC50", "protocol": "as §1, §2"}, "[25]": {"system": "JeKo-1", "conditions": "Homo sapiens; JeKo-1 cell line, B-cell lymphoma; read-out: Aza-T-dCyd IC50", "protocol": "as §1, §2"}, "[26]": {"system": "Hs 578T", "conditions": "Homo sapiens; Hs 578T cell line, Breast; read-out: Aza-T-dCyd IC50", "protocol": "as §1, §2"}, "[27]": {"system": "LS411N", "conditions": "Homo sapiens, LS-411N; LS411N cell line, Colon; read-out: Aza-T-dCyd IC50", "protocol": "as §1, §2"}, "[28]": {"system": "SJRH30", "conditions": "Homo sapiens; SJRH30 cell line, Sarcoma; read-out: Aza-T-dCyd IC50", "protocol": "as §1, §2"}, "[29]": {"system": "BxPC-3", "conditions": "Homo sapiens; BxPC-3 cell line, Pancreas; read-out: Aza-T-dCyd IC50", "protocol": "as §1, §2"}, "[30]": {"system": "COR-L105", "conditions": "Homo sapiens; COR-L105 cell line, Lung (NSCLC); read-out: Aza-T-dCyd IC50", "protocol": "as §1, §2"}, "[31]": {"system": "HPAF-II", "conditions": "Homo sapiens; HPAF-II cell line, Pancreas; read-out: Aza-T-dCyd IC50", "protocol": "as §1, §2"}},
  "data": [
    {"smiles": "Nc1ncn([C@H]2CC(O)[C@@H](CO)S2)c(=O)n1", "note": "(stereo partly shown) [Aza-T-dCyd, 4′-thio-5-aza-2′-deoxycytidine]", "values": [
      {"measurement": "IC50", "setting": "[1]", "value": 807, "unit": "nM"},
      {"measurement": "IC50", "setting": "[2]", "value": 733, "unit": "nM"},
      {"measurement": "IC50", "setting": "[3]", "value": 1830, "unit": "nM"},
      {"measurement": "IC50", "setting": "[4]", "value": 343, "unit": "nM"},
      {"measurement": "IC50", "setting": "[5]", "value": 461, "unit": "nM"},
      {"measurement": "IC50", "setting": "[6]", "value": 3040, "unit": "nM"},
      {"measurement": "IC50", "setting": "[7]", "value": 4410, "unit": "nM"},
      {"measurement": "IC50", "setting": "[8]", "value": 235, "unit": "nM"},
      {"measurement": "IC50", "setting": "[9]", "value": 263, "unit": "nM"},
      {"measurement": "IC50", "setting": "[10]", "value": 953, "unit": "nM"},
      {"measurement": "IC50", "setting": "[11]", "value": 451, "unit": "nM"},
      {"measurement": "IC50", "setting": "[12]", "value": 20.3, "unit": "nM"},
      {"measurement": "IC50", "setting": "[13]", "value": "> 10000", "unit": "nM"},
      {"measurement": "IC50", "setting": "[14]", "value": 80.1, "unit": "nM"},
      {"measurement": "IC50", "setting": "[15]", "value": 601, "unit": "nM"},
      {"measurement": "IC50", "setting": "[16]", "value": 296, "unit": "nM"},
      {"measurement": "IC50", "setting": "[17]", "value": 666, "unit": "nM"},
      {"measurement": "IC50", "setting": "[18]", "value": 119, "unit": "nM"},
      {"measurement": "IC50", "setting": "[19]", "value": 818, "unit": "nM"},
      {"measurement": "IC50", "setting": "[20]", "value": 321, "unit": "nM"},
      {"measurement": "IC50", "setting": "[21]", "value": 8190, "unit": "nM"},
      {"measurement": "IC50", "setting": "[22]", "value": 241, "unit": "nM"},
      {"measurement": "IC50", "setting": "[23]", "value": 1890, "unit": "nM"},
      {"measurement": "IC50", "setting": "[24]", "value": 68.8, "unit": "nM"},
      {"measurement": "IC50", "setting": "[25]", "value": 38.5, "unit": "nM"},
      {"measurement": "IC50", "setting": "[26]", "value": "> 10000", "unit": "nM"},
      {"measurement": "IC50", "setting": "[27]", "value": 265, "unit": "nM"},
      {"measurement": "IC50", "setting": "[28]", "value": 291, "unit": "nM"},
      {"measurement": "IC50", "setting": "[29]", "value": 699, "unit": "nM"},
      {"measurement": "IC50", "setting": "[30]", "value": 2240, "unit": "nM"},
      {"measurement": "IC50", "setting": "[31]", "value": 737, "unit": "nM"}
    ]}
  ]
}
